Results: the supplement of paper PMC10307832

What was measured:
Experiment in all cases: relative viability (nuclei count vs DMSO), 5 days (fraction); higher = more cells survive
IPA-3 + OSI-027 = compound: C1=CC=C2C(=C1)C=CC(=C2SSC3=C(C=CC4=CC=CC=C43)O)O [IPA-3] + COc1cccc2cc(-c3nc([C@H]4CC[C@H](C(=O)O)CC4)n4ncnc(N)c34)[nH]c12 [OSI-027] (partner 0.5 µM)
Procedure, shortened: (§1)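 For relative viability, nuclei counts in treated wells were divided by those in vehicle wells. Lung cancer cell lines had been pin-tool dosed in 1536-well plates the day after seeding and cultured for 5 days, then fixed and stained in one step (final 0.05% Triton X-100, 1% formaldehyde, 1 ug/ml Hoechst) and imaged at 4×. Doses were one drug alone or a fixed anchor-drug dose plus five library-drug doses (not always all listed) in √10 steps, and values are duplicate-plate medians.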

Doramapimod + Tozasertib = compound: Cc1ccc(-n2nc(C(C)(C)C)cc2NC(=O)Nc2ccc(OCCN3CCOCC3)c3ccccc23)cc1 [Doramapimod] + Cc1cc(Nc2cc(N3CCN(C)CC3)nc(Sc3ccc(NC(=O)C4CC4)cc3)n2)n[nH]1 [Tozasertib] (partner 0.1 µM)
Procedure, shortened: as §1

RAF265 + Crizotinib = compound: Cn1c(Nc2ccc(C(F)(F)F)cc2)nc2cc(Oc3ccnc(-c4ncc(C(F)(F)F)[nH]4)c3)ccc21 [RAF265] + C[C@@H](Oc1cc(-c2cnn(C3CCNCC3)c2)cnc1N)c1c(Cl)ccc(F)c1Cl [Crizotinib] (partner 1 µM)
Procedure, shortened: as §1

RAF265 + Vorinostat = compound: Cn1c(Nc2ccc(C(F)(F)F)cc2)nc2cc(Oc3ccnc(-c4ncc(C(F)(F)F)[nH]4)c3)ccc21 [RAF265] + O=C(CCCCCCC(=O)Nc1ccccc1)NO [Vorinostat] (partner 1 µM)
Procedure, shortened: as §1

Row | Cell Line | relative viability (IPA-3 + OSI-027; first compound 0.2 µM) | relative viability (IPA-3 + OSI-027; first compound 0.6325 µM) | relative viability (IPA-3 + OSI-027; first compound 2 µM) | relative viability (IPA-3 + OSI-027; first compound 6.325 µM) | relative viability (IPA-3 + OSI-027; first compound 20 µM) | relative viability (Doramapimod + Tozasertib; first compound 0.02 µM) | relative viability (Doramapimod + Tozasertib; first compound 0.06325 µM) | relative viability (Doramapimod + Tozasertib; first compound 0.2 µM) | relative viability (Doramapimod + Tozasertib; first compound 0.6325 µM) | relative viability (Doramapimod + Tozasertib; first compound 2 µM) | relative viability (RAF265 + Crizotinib; first compound 0.01 µM) | relative viability (RAF265 + Crizotinib; first compound 0.03162 µM) | relative viability (RAF265 + Crizotinib; first compound 0.1 µM) | relative viability (RAF265 + Crizotinib; first compound 0.3162 µM) | relative viability (RAF265 + Crizotinib; first compound 1 µM) | relative viability (RAF265 + Vorinostat; first compound 0.01 µM) | relative viability (RAF265 + Vorinostat; first compound 0.03162 µM) | relative viability (RAF265 + Vorinostat; first compound 0.1 µM) | relative viability (RAF265 + Vorinostat; first compound 0.3162 µM) | relative viability (RAF265 + Vorinostat; first compound 1 µM)
1 | NCI-H1623 | 0.466 | 0.436 | 0.431 | 0.413 | 0.375 | 0.424 | 0.426 | 0.411 | 0.46 | 0.318 |  |  |  |  |  |  |  |  |  | 
2 | SK-LU-1 | 0.361 | 0.347 | 0.341 | 0.345 | 0.354 | 0.348 | 0.41 | 0.314 | 0.347 | 0.277 | 0.45 | 0.753 | 0.73 | 0.477 | 0.397 | 0.715 | 0.449 | 0.443 | 0.36 | 0.262
3 | NCI-H2085 | 0.982 | 0.665 | 0.742 | 0.9 | 0.817 | 0.882 | 0.913 | 0.852 | 0.84 | 0.796 | 0.696 | 0.886 | 0.858 | 1.05 | 0.806 | 0.891 | 0.714 | 0.82 | 0.788 | 0.803
4 | NCI-H460 | 1.2 | 0.615 | 0.658 | 0.671 | 0.78 | 0.455 | 0.517 | 0.49 | 0.673 | 0.372 | 0.972 | 0.904 | 0.743 |  | 0.881 | 0.756 | 0.692 | 0.671 | 0.668 | 0.642
5 | Calu-6 |  |  |  |  |  |  |  |  |  |  | 0.73 | 0.709 | 0.658 | 0.529 | 0.276 |  |  |  |  | 
6 | RERF-LC-KJ | 0.668 | 0.563 | 0.58 | 0.554 | 0.619 | 0.506 | 0.535 | 0.609 | 0.516 | 0.498 | 0.867 | 0.818 | 0.93 | 0.852 | 0.632 | 0.704 | 0.647 | 0.772 | 0.649 | 0.582
7 | LCLC-103H | 0.442 | 0.444 | 0.463 | 0.486 | 0.505 | 0.431 | 0.529 | 0.388 | 0.544 | 0.432 | 1.06 | 1.05 | 1.07 | 1 | 0.713 | 0.844 | 0.892 | 0.683 | 0.565 | 0.422
8 | HCC-15 | 0.765 | 0.685 | 0.636 | 0.688 | 0.718 | 0.401 | 0.343 | 0.414 |  | 0.309 | 0.83 | 0.817 | 0.836 | 0.566 | 0.499 | 0.803 | 0.937 | 0.867 | 0.782 | 0.551
9 | H3255 | 0.609 | 0.566 | 0.677 | 0.508 | 0.62 | 0.688 | 0.65 | 0.669 | 0.602 | 0.452 | 0.928 | 0.83 | 1.12 |  | 0.671 | 0.889 | 0.748 | 0.804 | 0.231 | 0.413
10 | NCI-H1792 | 0.789 | 0.718 | 0.641 | 0.711 | 0.792 |  |  |  |  |  | 1.01 | 0.989 | 0.977 | 0.839 | 0.419 |  |  |  |  | 
11 | NCI-H1563 | 0.841 | 0.794 | 0.74 | 0.828 | 0.716 |  |  |  |  |  | 0.88 | 0.916 | 0.849 | 0.801 | 0.824 |  |  |  |  | 
12 | NCI-H596 | 0.761 | 0.681 | 0.757 | 0.668 | 0.865 | 0.939 | 0.862 | 1.11 | 0.982 | 0.883 | 0.933 | 0.938 | 0.962 | 0.924 | 0.711 | 0.809 | 0.642 | 0.642 | 0.589 | 0.522
13 | NCI-H2087 | 0.616 | 0.543 | 0.586 | 0.602 | 0.642 | 0.32 | 0.308 | 0.253 | 0.223 | 0.233 | 0.71 | 0.7 | 0.818 | 0.637 | 0.692 | 0.634 | 0.359 | 0.757 | 0.864 | 0.719
14 | NCI-H661 | 0.894 | 0.726 | 0.716 | 0.356 | 0.673 | 0.36 | 0.353 | 0.342 | 0.366 | 0.346 | 0.931 | 0.747 | 1.04 | 0.906 | 0.716 | 0.834 | 0.698 | 0.639 | 0.554 | 0.568
15 | NCI-H2342 | 0.663 | 0.619 | 0.68 | 0.757 | 0.743 | 0.494 | 0.508 | 0.554 | 0.584 | 0.621 |  |  |  |  |  | 0.714 | 0.809 | 0.851 | 0.667 | 0.764
16 | NCI-H1299 |  |  |  |  |  |  |  |  |  |  | 0.966 | 0.95 | 0.93 | 0.703 | 0.645 |  |  |  |  | 
17 | SW 900 | 0.759 | 0.611 | 0.6 | 0.556 | 0.409 | 0.538 | 0.584 | 0.618 | 0.479 | 0.481 |  |  |  |  |  | 0.544 | 0.494 | 0.503 | 0.381 | 0.227
18 | EBC-1 |  |  |  |  |  |  |  |  |  |  | 0.181 | 0.194 | 0.191 | 0.26 | 0.219 |  |  |  |  | 
19 | NCI-H1395 | 0.641 | 0.705 | 0.547 | 0.621 | 0.692 | 0.765 | 0.778 | 0.783 | 0.761 | 0.717 |  |  |  |  |  | 0.791 | 0.65 | 0.807 | 0.554 | 0.587
20 | IA-LM |  |  |  |  |  |  |  |  |  |  | 0.711 | 0.646 | 0.803 | 0.768 | 0.642 | 1.06 | 0.779 | 0.895 | 0.925 | 0.849
21 | NCI-H1703 |  |  |  |  |  |  |  |  |  |  | 0.567 | 0.512 | 0.581 | 0.449 | 0.195 |  |  |  |  | 
22 | NCI-H1793 | 0.286 | 0.136 | 0.291 | 0.314 | 0.323 | 0.27 | 0.319 | 0.319 | 0.352 | 0.26 |  |  |  |  |  | 0.865 | 0.697 | 0.633 | 0.201 | 0.311
